Data taken from article PMC7248098, “Biochemical characterization and inhibition of the alternative oxidase enzyme from the fungal phytopathogen Moniliophthora perniciosa” (Communications Biology, 2020).
Several values for one entry are separate records, joined by “and”; a condition that tells them apart may be missing. Identical values can stand only once.

Assays:
[1] = target: T1, membrane-bound rMpAOX (Moniliophthora perniciosa, UniProt A8QJP8); experiment: Dose-response assay of inhibitors with membrane-bound, GMP-activated rMpAOX (NADH oxidation); type: biochemical; conditions: for Fractional velocity, %: log[I]
Protocol: (§1) E. coli membrane preparation was performed as described with minor modifications. […] The cells were disrupted using two passes at […] through a pre-cooled Constant cell disruption system (Constant Systems Ltd). The lysate was centrifuged for 15 min at 16,000 rcf, and the pelleted unbroken cells and large cell debris were discarded. The supernatant was centrifuged for 90 min at 200,000 rcf to collect the fragmented membranes.
(§2) Respiration rates were recorded before and after the addition of putative AOX activators, such as 5′-ADP, 5′-AMP, 5′-GDP, 5′-GMP, glyoxylate, oxaloacetate, pyruvate or succinate (1 mM each unless stated otherwise). […] Data were acquired with the Multiskan FC Microplate Photometer (ThermoFisher). […] Absorbance readings were taken periodically and a blank reactions (substrate without enzyme) were included in every assay and were used to determine and subtract the autoxidation rate (background). Proteoliposomes were assayed as described for the E. coli membrane fraction except that no KCN was included and 0.5 µL of the prep (~50 ng rMpAOX) were added into the reaction. When tested, inhibitors were preincubated with the enzyme in reaction buffer for 2–5 min before starting the reaction by the addition of substrate. The path length (i.e., the height of the reaction medium inside the well) was calculated based on the reaction volume and the well cross-section area informed by the supplier. GraphPad Prism 7.0 (GraphPad Software Inc.) was used for function fitting.

[2] = tested on: membrane-bound TAO; experiment: Inhibition of membrane-bound TAO (literature); type: biochemical, Trypanosoma brucei; conditions: from literature IC50 values
[3] = tested on: membrane-bound TAO; design: method as in PMID 23180806; conditions: cited from earlier work
[4] = target: T1, membrane-bound rMpAOX; experiment: Membrane-bound rMpAOX activity with putative activators (O2 uptake, oxygraph; dose-response); type: biochemical;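 for Fractional velocity, %: 100% is the maximal rate reached in the activator titration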
Protocol: as §1, §2

[5] = target: purified rMpAOX (Moniliophthora perniciosa, UniProt A8QJP8); experiment: Purified (detergent-solubilised) rMpAOX, Q1H2 oxidation; type: biochemical; conditions: GMP up to 0.5 mM, purified rMpAOX
Protocol: The E. coli membrane fraction was resuspended with 50 mM Tris-HCl pH 7.5, 20% glycerol, 200 mM MgSO4 and 1% Fos-Choline-12 (FC-12) instead of MOPS buffer. The sample was left under gentle rocking for 1 h at 4 °C, after which it was centrifuged at 200,000 rcf for 30 min. […] T. Elthon, Nebraska, USA. Protein content was estimated through the Bradford method[63] and bovine serum albumin as standard.
as §2

[6] = target: rMpAOX incorporated into proteoliposomes (Moniliophthora perniciosa, UniProt A8QJP8); experiment: rMpAOX incorporated into proteoliposomes with Q10 and NDH-2 (NADH oxidation); type: biochemical; conditions: for Km / VMax: substrate ubiquinol-10 in proteoliposomes, ~50 ng rMpAOX, 300 µM NADH
Protocol: Proteoliposomes (PL) were prepared as previously described[44],[45], except that NDH-2 was used instead of complex I and 0.5% DDM was used instead of OG. […] For kinetic studies, PLs were prepared with 50 µg rMpAOX and no NDH-2—in this case, pure NDH-2 was added directly into the enzymatic reaction mixture at a saturating concentration. Briefly, lipids and Q10 stocks in chloroform were mixed in a glass vial and the chloroform dried under a nitrogen stream. The lipids were hydrated and extruded through a 100 nm NanoSizer MINI Liposome Extruder (T&T Scientific) followed by the addition of protein. After treatment with the Bio-Beads SM-2 Resin (Bio-Rad), proteolipososmes were harvested by ultracentrifugation and resuspended in 150 µL of buffer. Enzymatic assays were performed on the same day.
as §2

[7] = tested on: WBD (witches' broom disease of cocoa, M. perniciosa); design: method as in PMID 30350447; conditions: 200 µM, in the absence of a main respiration inhibitor; cited from earlier work

Chain of rMpAOX incorporated into proteoliposomes (A8QJP8 entry or part of it): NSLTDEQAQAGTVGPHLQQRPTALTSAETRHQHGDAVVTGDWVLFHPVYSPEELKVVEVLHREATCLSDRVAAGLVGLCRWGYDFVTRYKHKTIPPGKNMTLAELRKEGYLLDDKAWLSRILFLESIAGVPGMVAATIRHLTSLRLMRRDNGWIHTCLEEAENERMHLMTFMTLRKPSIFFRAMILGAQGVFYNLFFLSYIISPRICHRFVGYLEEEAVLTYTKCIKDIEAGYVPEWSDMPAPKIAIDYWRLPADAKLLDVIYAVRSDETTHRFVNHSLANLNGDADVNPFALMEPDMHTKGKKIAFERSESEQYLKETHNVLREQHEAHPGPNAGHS
T1 sequence (A8QJP8 entry or part of it): as above
Chain of purified rMpAOX (A8QJP8 entry or part of it): as above

CC(/C=C/[C@@]1(C)[C@H](C)CCC(=O)[C@@H]1C)=C\Cc1c(O)c(Cl)c(C)c(C=O)c1O [AC, ascochlorin]
IC50 [1]: 5.25 µM | Fractional velocity, % ([1]; M -5.60206 (Fig2b), 2.5 µM): 73.3239% and 61.6121% | Fractional velocity, % ([1]; M -6.60206 (Fig2b), 0.25 µM): 96.489% and 80.5494% | Fractional velocity, % ([1]; M -7.60206 (Fig2b), 0.025 µM): 98.3896% and 89.3939% | Fractional velocity, % ([1]; M -8.60206 (Fig2b), 0.0025 µM): 99.2565% and 89.0077% | Fractional velocity, % ([1]; M -9.60206 (Fig2b), 0.00025 µM): 97.0686% and 90.2842% | Fractional velocity, % ([1]; M -10.6021 (Fig2b), 25 pM): 95.0559% and 89.2874% | activity at 2.5 µM ([1]; read-out: Fractional velocity, %, log[I], M -5.60206 (Fig2b)): 60.8% | activity at 0.25 µM ([1]; read-out: Fractional velocity, %, log[I], M -6.60206 (Fig2b)): 92.8% | activity at 0.025 µM ([1]; read-out: Fractional velocity, %, log[I], M -7.60206 (Fig2b)): 98.2% | activity at 0.0025 µM ([1]; read-out: Fractional velocity, %, log[I], M -8.60206 (Fig2b)): 97.9% | activity at 0.00025 µM ([1]; read-out: Fractional velocity, %, log[I], M -9.60206 (Fig2b)): 95.5% | activity at 25 pM ([1]; read-out: Fractional velocity, %, log[I], M -10.6021 (Fig2b)): 93.4% | Ratio of AC IC50 to CB IC50 (TAO) [2]: 7.5 | IC50 [3]: 0.0015 µM

Nc1nc2c(ncn2[C@@H]2O[C@H](COP(=O)(O)O)[C@@H](O)[C@H]2O)c(=O)[nH]1 [GMP, 5′-GMP]
Maximum membrane-bound rMpAOX oxygen uptake ([4]; 1 mM GMP): 0.67 µmol O2 min^−1 mg total protein^−1 | Maximum membrane-bound rMpAOX oxygen uptake per mg AOX ([4]; 1 mM GMP): 5 µmol O2 min^−1 mg AOX^−1 | Increase of membrane-bound rMpAOX oxygen uptake ([4]; 1 mM activator): 9.8 times | Fold-change in membrane-bound rMpAOX O2 uptake ([4]; 1 mM each, single independent measurements (Fig1a)): 8.8788 and 10.5259 and 10.0722 | Fractional velocity, % ([4]; [activator] 0.025 mM (Fig1b)): 56.6% and 57.7% | Fractional velocity, % ([4]; [activator] 0.075 mM (Fig1b)): 100.5% and 91.4% | Fractional velocity, % ([4]; [activator] 0.175 mM (Fig1b)): 125.1% and 121.5% | Fractional velocity, % ([4]; [activator] 0.375 mM (Fig1b)): 153.9% and 143.6% | Fractional velocity, % ([4]; [activator] 0.625 mM (Fig1b)): 166.3% and 158.4% | Fractional velocity, % ([4]; [activator] 1.125 mM (Fig1b)): 182.1% and 175.1% | Fractional velocity, % ([4]; [activator] 2.125 mM (Fig1b)): 186.8% and 187.9% | Fractional velocity, % ([4]; [activator] 4.125 mM (Fig1b)): 193.5% and 196.9% | Fractional velocity, % ([4]; [activator] 6.625 mM (Fig1b)): 206.9% and 200.9% | EC50 ([4]; membrane-bound rMpAOX, 4-parameter sigmoid fit, read-out: EC50 of rMpAOX activation): 166 µM | Effect on rMpAOX kinetic parameters KM and VMax [5]: did not alter | Sensitivity of rMpAOX to GMP ([6]; PL system): not regained

O=C(Nc1cccc(Br)c1)c1cccc(F)c1 [N-(3-bromophenyl)-3-fluorobenzamide]
Effect in plants against WBD [7]: protective effect

COc1c(O)c(C)c(C/C=C(\C)CC/C=C(\C)CC/C=C(\C)CC/C=C(\C)CC/C=C(\C)CC/C=C(\C)CC/C=C(\C)CC/C=C(\C)CC/C=C(\C)CCC=C(C)C)c(O)c1OC [Q10H2, ubiquinol-10]
rMpAOX catalytic rate ([6]; 180 µM Q10H2 in the phospholipid membrane, calculated from KM and VMax): 9.3 µmol/min/mg | Km [6]: 960 ± 760 µM | VMax [6]: 59.4 ± 6.6 µmol Q10 min^−1 mg^−1

COC1=C(OC)C(=O)C(C/C=C(\C)CC/C=C(\C)CC/C=C(\C)CC/C=C(\C)CC/C=C(\C)CC/C=C(\C)CC/C=C(\C)CC/C=C(\C)CC/C=C(\C)CCC=C(C)C)=C(C)C1=O [Q10]
Km [6]: 960 ± 760 µM | VMax [6]: 59.4 µmol Q10 min^−1 mg^−1 and 59.4 ± 6.6 µmol Q10 min^−1 mg^−1
